# Data published in article PMC12377202, “Design, synthesis, and cytotoxic evaluation of quinazoline-based derivatives as VEGER-2 inhibitors: comparative study against EGFR kinase activity, induction of apoptosis, and molecular docking study” (RSC Advances, 2025).
# Columns and labels:
# [1] = test system: caspase-9; experiment: Caspase-9 expression level in HepG-2 cells; assay type: cell-based, human; settings: for Caspase-9 ± SE: HepG-2, at IC50 concentrations, control 11.01
# Procedure: (§1) All synthesized compounds were tested at their cytotoxic concentrations in HepG-2 cells for analysis of gene expression levels of apoptotic markers caspase-3, caspase-9, TNF-α, and IL-6 proteins, and only two active compounds were tested for BAX and Bcl-2 proteins.
# (§2) through Flow cytometric analysis.
# (§3) Pellets were collected again and incubated with
# (§4) Total RNA from vehicle-treated
# (§5) (Thermo Scientific, USA).
# (§6) All experiments were performed in […]
# [2] = test system: MCF-7; experiment: MTT anti-proliferative assay, MCF-7; assay type: cell-based, human; settings: Homo sapiens, MCF7
# [3] = test system: HepG-2; experiment: MTT anti-proliferative assay, HepG-2; assay type: cell-based, human; settings: Homo sapiens, HepG2
# [4] = test system: TNF-alpha; experiment: TNF-alpha level in HepG-2 cells; assay type: cell-based, human; settings: control 43.48
# Procedure: as §1, §2, §3, §4, §5, §6
# [5] = test system: IL-6R; experiment: IL-6R level in HepG-2 cells; assay type: cell-based, human
# Procedure: as §1, §2, §3, §4, §5, §6
# [6] = target: VEGFR-2 (Homo sapiens, UniProt P35968); experiment: In vitro VEGFR-2 inhibitory assay (ELISA kit); settings: VEGFR-2 kinase
# [7] = test system: K-562; experiment: MTT anti-proliferative assay, K-562; assay type: cell-based, human; settings: Homo sapiens, K562
# [8] = target: EGFR (Homo sapiens, UniProt P00533); experiment: EGFR kinase inhibition assay (ELISA kit)
# [9] = test system: caspase-3; experiment: Caspase-3 expression level in HepG-2 cells; assay type: cell-based, human; settings: for Caspase-3 ± SE: HepG-2, at IC50 concentrations, control 0.460
# Procedure: as §1, §2, §3, §4, §5, §6
# EGFR, sequence (P00533 25-1210): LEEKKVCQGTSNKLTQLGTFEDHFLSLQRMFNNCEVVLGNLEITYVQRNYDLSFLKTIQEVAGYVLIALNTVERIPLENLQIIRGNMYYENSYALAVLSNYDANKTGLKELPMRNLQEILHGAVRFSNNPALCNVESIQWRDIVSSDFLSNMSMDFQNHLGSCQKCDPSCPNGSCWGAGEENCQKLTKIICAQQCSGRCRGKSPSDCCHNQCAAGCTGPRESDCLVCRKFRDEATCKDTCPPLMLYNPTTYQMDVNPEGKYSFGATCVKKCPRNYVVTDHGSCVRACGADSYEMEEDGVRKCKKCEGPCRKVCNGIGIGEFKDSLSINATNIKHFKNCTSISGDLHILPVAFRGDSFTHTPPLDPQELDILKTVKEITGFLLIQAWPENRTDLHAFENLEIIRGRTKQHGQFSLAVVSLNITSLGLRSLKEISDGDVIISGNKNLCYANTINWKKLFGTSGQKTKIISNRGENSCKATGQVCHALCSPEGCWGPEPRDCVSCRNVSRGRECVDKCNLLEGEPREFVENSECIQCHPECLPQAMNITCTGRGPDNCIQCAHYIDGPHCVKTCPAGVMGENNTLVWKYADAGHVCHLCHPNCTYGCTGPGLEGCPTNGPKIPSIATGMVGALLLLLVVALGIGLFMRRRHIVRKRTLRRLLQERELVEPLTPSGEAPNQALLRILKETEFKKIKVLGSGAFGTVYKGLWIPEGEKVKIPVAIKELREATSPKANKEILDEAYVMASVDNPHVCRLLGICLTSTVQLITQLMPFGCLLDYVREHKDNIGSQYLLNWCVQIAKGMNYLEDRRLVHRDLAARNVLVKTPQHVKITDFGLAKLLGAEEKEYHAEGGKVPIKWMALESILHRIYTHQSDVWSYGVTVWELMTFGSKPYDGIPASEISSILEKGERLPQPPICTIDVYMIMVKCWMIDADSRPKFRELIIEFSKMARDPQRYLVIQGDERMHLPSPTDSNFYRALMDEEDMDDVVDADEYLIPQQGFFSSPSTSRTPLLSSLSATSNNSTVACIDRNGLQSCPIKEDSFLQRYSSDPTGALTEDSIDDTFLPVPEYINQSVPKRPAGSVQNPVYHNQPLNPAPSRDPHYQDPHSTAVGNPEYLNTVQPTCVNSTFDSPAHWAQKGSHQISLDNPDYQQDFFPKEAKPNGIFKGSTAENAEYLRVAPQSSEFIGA
# VEGFR-2, sequence (P35968 20-1356): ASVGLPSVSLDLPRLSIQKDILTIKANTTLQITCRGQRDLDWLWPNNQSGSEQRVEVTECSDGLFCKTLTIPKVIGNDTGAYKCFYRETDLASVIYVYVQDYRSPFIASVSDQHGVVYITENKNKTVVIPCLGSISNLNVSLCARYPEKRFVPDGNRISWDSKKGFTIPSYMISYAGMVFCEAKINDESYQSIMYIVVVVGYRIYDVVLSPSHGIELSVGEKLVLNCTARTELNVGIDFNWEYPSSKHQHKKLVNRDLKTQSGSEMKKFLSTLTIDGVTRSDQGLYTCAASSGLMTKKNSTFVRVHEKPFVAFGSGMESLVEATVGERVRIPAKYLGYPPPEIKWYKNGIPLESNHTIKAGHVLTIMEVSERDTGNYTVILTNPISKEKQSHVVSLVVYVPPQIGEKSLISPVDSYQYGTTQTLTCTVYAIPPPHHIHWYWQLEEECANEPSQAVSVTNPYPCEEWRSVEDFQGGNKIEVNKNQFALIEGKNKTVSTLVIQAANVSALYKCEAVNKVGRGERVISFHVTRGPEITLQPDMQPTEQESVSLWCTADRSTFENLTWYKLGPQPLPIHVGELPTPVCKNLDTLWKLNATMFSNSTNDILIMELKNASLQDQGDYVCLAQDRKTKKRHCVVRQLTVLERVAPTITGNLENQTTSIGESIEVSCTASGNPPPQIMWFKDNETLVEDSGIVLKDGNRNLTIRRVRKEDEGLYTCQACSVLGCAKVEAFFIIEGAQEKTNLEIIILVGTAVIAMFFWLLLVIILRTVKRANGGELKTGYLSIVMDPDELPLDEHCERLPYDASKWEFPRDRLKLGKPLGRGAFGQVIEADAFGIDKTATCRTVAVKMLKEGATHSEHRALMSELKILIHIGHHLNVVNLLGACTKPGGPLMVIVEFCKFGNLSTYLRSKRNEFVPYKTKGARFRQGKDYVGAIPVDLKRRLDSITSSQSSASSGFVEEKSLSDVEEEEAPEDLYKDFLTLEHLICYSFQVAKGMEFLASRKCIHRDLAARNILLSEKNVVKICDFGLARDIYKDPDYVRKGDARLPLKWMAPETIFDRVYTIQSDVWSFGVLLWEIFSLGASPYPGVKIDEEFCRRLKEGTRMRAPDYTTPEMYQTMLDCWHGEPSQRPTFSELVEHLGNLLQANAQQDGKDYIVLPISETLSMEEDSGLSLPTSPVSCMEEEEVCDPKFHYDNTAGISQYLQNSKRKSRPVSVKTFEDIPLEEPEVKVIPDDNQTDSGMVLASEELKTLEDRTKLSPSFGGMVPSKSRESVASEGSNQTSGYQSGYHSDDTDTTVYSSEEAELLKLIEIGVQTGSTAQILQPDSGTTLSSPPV
smiles,measurement,setting,value
"O=C(Cn1cnc2cc(Cl)ccc2c1=O)Nc1ccccc1Cl [8b, 2-(7-Chloro-4-oxoquinazolin-3(4H)-yl)-N-(2-chlorophenyl)acetamide]",Caspase-9 ± SE,[1],83.31 ± 1.28 ng/L
same,Caspase-9 ± SE,[1]; listed as R3,83.31 ng/L
same,"caspase-9 expression level, fold increase","[1]; HepG-2, vs control cells",7.5 fold
same,viability at 0.195 µmol,"[2]; MCF-7, 0.195 umol",47.8%
same,cytotoxicity at 0.195 µmol,"[2]; MCF-7, 0.195 umol, read-out: Toxicity %",52.2%
same,viability at 0.391 µmol,"[2]; MCF-7, 0.391 umol",28.6%
same,cytotoxicity at 0.391 µmol,"[2]; MCF-7, 0.391 umol, read-out: Toxicity %",71.4%
same,viability at 0.781 µmol,"[2]; MCF-7, 0.781 umol",14.1%
same,cytotoxicity at 0.781 µmol,"[2]; MCF-7, 0.781 umol, read-out: Toxicity %",85.9%
same,viability at 1.563 µmol,"[2]; MCF-7, 1.563 umol",12%
same,cytotoxicity at 1.563 µmol,"[2]; MCF-7, 1.563 umol, read-out: Toxicity %",88%
same,viability at 3.125 µmol,"[2]; MCF-7, 3.125 umol",9.81%
same,cytotoxicity at 3.125 µmol,"[2]; MCF-7, 3.125 umol, read-out: Toxicity %",90.2%
same,viability at 6.25 µmol,"[2]; MCF-7, 6.25 umol",8.27%
same,cytotoxicity at 6.25 µmol,"[2]; MCF-7, 6.25 umol, read-out: Toxicity %",91.7%
same,viability at 12.5 µmol,"[2]; MCF-7, 12.5 umol",6.86%
same,cytotoxicity at 12.5 µmol,"[2]; MCF-7, 12.5 umol, read-out: Toxicity %",93.1%
same,viability at 25 µmol,"[2]; MCF-7, 25 umol",6.68%
same,cytotoxicity at 25 µmol,"[2]; MCF-7, 25 umol, read-out: Toxicity %",93.3%
same,IC50,"[2]; MTT, MCF-7, read-out: Cytotoxicity against cancer cells IC50 MCF-7",191 ± 4 nM
same,viability at 0.195 µg/mL,"[3]; HepG-2, 0.195 ug/ml",52.9%
same,cytotoxicity at 0.195 µg/mL,"[3]; HepG-2, 0.195 ug/ml, read-out: Toxicity %",47.1%
same,viability at 0.391 µg/mL,"[3]; HepG-2, 0.391 ug/ml",33.3%
same,cytotoxicity at 0.391 µg/mL,"[3]; HepG-2, 0.391 ug/ml, read-out: Toxicity %",66.7%
same,viability at 0.781 µg/mL,"[3]; HepG-2, 0.781 ug/ml",27.5%
same,cytotoxicity at 0.781 µg/mL,"[3]; HepG-2, 0.781 ug/ml, read-out: Toxicity %",72.5%
same,viability at 1.563 µg/mL,"[3]; HepG-2, 1.563 ug/ml",13.7%
same,cytotoxicity at 1.563 µg/mL,"[3]; HepG-2, 1.563 ug/ml, read-out: Toxicity %",86.3%
same,viability at 3.125 µg/mL,"[3]; HepG-2, 3.125 ug/ml",9.67%
same,cytotoxicity at 3.125 µg/mL,"[3]; HepG-2, 3.125 ug/ml, read-out: Toxicity %",90.3%
same,viability at 6.25 µg/mL,"[3]; HepG-2, 6.25 ug/ml",8.39%
same,cytotoxicity at 6.25 µg/mL,"[3]; HepG-2, 6.25 ug/ml, read-out: Toxicity %",91.6%
same,viability at 12.5 µg/mL,"[3]; HepG-2, 12.5 ug/ml",7.03%
same,cytotoxicity at 12.5 µg/mL,"[3]; HepG-2, 12.5 ug/ml, read-out: Toxicity %",93%
same,viability at 25 µg/mL,"[3]; HepG-2, 25 ug/ml",5.68%
same,cytotoxicity at 25 µg/mL,"[3]; HepG-2, 25 ug/ml, read-out: Toxicity %",94.3%
same,IC50,"[3]; MTT, HepG-2, read-out: Cytotoxicity against cancer cells IC50 HepG-2",224.2 ± 1.7 nM
same,TNF-alpha ±SE,"[4]; HepG-2, at IC50 concentrations",23.47 ± 0.56 ng/L
same,TNF-alpha ±SE,"[4]; raw data, HepG2",16.86 ng/L
same,IL-6R ± SE,"[5]; HepG-2, at IC50 concentrations, control 44.10",24.59 ± 0.95 ng/L
same,IL-6R protein level,"[5]; HepG-2, control 44.10%",24.59 ng/L
same,IL-6 ±SE,"[5]; raw data, HepG2, control 44.10",11.87 ng/L
same,Activity %,[6]; HepG2,11.673%
same,Inhibition %,[6]; HepG2,88.327%
same,Activity %,[6]; K-562,21.332%
same,Inhibition %,[6]; K-562,78.668%
same,Activity %,[6]; MCF7,19.260%
same,Inhibition %,[6]; MCF7,80.740%
same,viability at 0.195 µmol,"[7]; K-562, 0.195 umol",82.7%
same,cytotoxicity at 0.195 µmol,"[7]; K-562, 0.195 umol, read-out: Toxicity %",17.3%
same,viability at 0.391 µmol,"[7]; K-562, 0.391 umol",55.2%
same,cytotoxicity at 0.391 µmol,"[7]; K-562, 0.391 umol, read-out: Toxicity %",44.8%
same,viability at 0.781 µmol,"[7]; K-562, 0.781 umol",27.4%
same,cytotoxicity at 0.781 µmol,"[7]; K-562, 0.781 umol, read-out: Toxicity %",72.6%
same,viability at 1.563 µmol,"[7]; K-562, 1.563 umol",16.4%
same,cytotoxicity at 1.563 µmol,"[7]; K-562, 1.563 umol, read-out: Toxicity %",83.6%
same,viability at 3.125 µmol,"[7]; K-562, 3.125 umol",11.1%
same,cytotoxicity at 3.125 µmol,"[7]; K-562, 3.125 umol, read-out: Toxicity %",88.9%
same,viability at 6.25 µmol,"[7]; K-562, 6.25 umol",8.54%
same,cytotoxicity at 6.25 µmol,"[7]; K-562, 6.25 umol, read-out: Toxicity %",91.5%
same,viability at 12.5 µmol,"[7]; K-562, 12.5 umol",7.8%
same,cytotoxicity at 12.5 µmol,"[7]; K-562, 12.5 umol, read-out: Toxicity %",92.2%
same,viability at 25 µmol,"[7]; K-562, 25 umol",6.69%
same,cytotoxicity at 25 µmol,"[7]; K-562, 25 umol, read-out: Toxicity %",93.3%
same,IC50,"[7]; MTT, K-562, read-out: Cytotoxicity against cancer cells IC50 K-562",464.2 ± 3 nM
same,Activity %,[8]; HepG2,16.278%
same,Inhibition %,[8]; HepG2,83.722%
same,Activity %,[8]; K-562,17.305%
same,Inhibition %,[8]; K-562,82.695%
same,Activity %,[8]; MCF7,18.736%
same,Inhibition %,[8]; MCF7,81.264%
same,Caspase-3 ± SE,[9],1.10 ± 0.046 ng/mL
same,Caspase-3 ± SE,[9]; listed as R3,1.10 ng/mL
same,"caspase-3 expression level, fold increase","[9]; HepG-2, vs control cells",2.40 fold
